These results are taken from patent US11407750B2, “Derivatives of an FGFR inhibitor” (Incyte Corporation, priority 2019, dated 2022).

Broadly, the Papp B→A is how fast a substance crosses the layer from the basolateral side. The term IC50 denotes the concentration that inhibits the measured activity by half.

For one data set, the target named is P-gp (Homo sapiens (Human), UniProt P08183). The data set can be described thus: Bidirectional transport across Caco-2 monolayers (P-gp mediated transport). Type of data set: in vitro ADME. The conditions noted are these: human. As for the experimental part:
(§1) Caco-2 cells were grown in 96-well transwell plates with a seeding density of 14000 cell/well in DMEM medium. To determine the permeability in the absorptive direction (A-B), the test compound in HBSS was added to the donor compartment (apical side), and 4% BSA in HBSS was added into the receiver compartment (basolateral side). To determine whether a compound is a P-gp substrate, permeability values were measured in both the A-B and B-A directions (bidirectional transport assay) in the absence of 4% BSA. Digoxin and cyclosporine A were included as positive controls for P-gp substrate and inhibitor, respectively, to ensure the functionality of P-gp in the bidirectional transport assay. The test compound at various concentrations was added in the donor compartment (apical side for A-B transport and basolateral side for B-A transport) while HBSS solution was added in the receiver compartment (basolateral side for A-B transport and apical side for B-A transport). For permeability studies in the A-B direction, the donor volume was 0.075 mL, and the receiver volume was 0.25 mL. For permeability studies in the B-A direction, the donor volume was 0.25 mL, and the receiver volume was 0.075 mL. The incubation was carried out at 37° C. for 120 minutes. Transepithelial electrical resistance (TEER) was measured before and after the 120 minutes incubation to ensure the integrity of the cell monolayers. At the end of the incubation period, samples were removed from both the donor and receiver sides and mixed with acetonitrile for protein precipitation. The supernatants were collected after centrifugation for analysis using LC-MS/MS method.
(§2) Permeability coefficient (Papp) values from Caco-2 studies were determined using the following equation: Papp(cm/s)=(F*VD)/(SA*MD) where the flux rate (F, mass/time) was calculated from the slope of cumulative amounts of compound of interest on the receiver side, SA is the surface area of the cell membrane, VD is the donor volume, and MD is the initial amount of the solution in the donor chamber.
The efflux ratio from Caco-2 studies was calculated as the ratio of the Papp measured in the B-A direction divided by the Papp in the A-B direction.
In general terms: Passage across Caco-2 layers is used to estimate intestinal permeability.

The nature of data set [1]: Compound 1 human absorption, metabolism, and excretion study (single oral dose of [14C] Compound 1). The conditions noted are these: for % Total Radioactivity Pool of Hamilton Pools (0-24 h): blood/plasma samples; for % of Administered Dose in Feces Samples, Sum: sum 0-144 h. It counts as in vivo. How it is done:
An open label-study was conducted, assessing the mass balance, pharmacokinetics, and metabolite profiles of a single oral dose of [14C] Compound 1:
Blood/plasma, urine, and feces were collected from participants for 4 to 10 days after administration.
Human discharge criteria includes that a minimum of 90% of the administered radioactive dose is recovered; and that less than or equal to 1% of the administered radioactive dose is recovered in excreta (urine and feces combined) in 2 consecutive 24-hour urine and fecal collection samples.

The next data set relates to Caco-2 cells. Description: Permeability in Caco-2 cells (absorptive direction A-B). The settings on record: 4% BSA in receiver. Type of data set: in vitro ADME. How it is done:
as §1, §2

Assay in data set [2]: as above
Type of data set: in vitro ADME. The conditions noted are these: human, Caco-2, 4% BSA in receiver, read-out: CACO2 Pm. How it is done: as §1, §2

Another data set has as its target FGFR1 (Homo sapiens (Human), UniProt P11362). Description: FGFR Enzymatic Assay (FRET peptide phosphorylation), FGFR1. It counts as biochemical. How it is done:
(§3) The inhibitor potency of the exemplified compounds was determined in an enzyme discontinuous assay that measures peptide phosphorylation using FRET measurements to detect product formation. Inhibitors were serially diluted in DMSO and a volume of 0.2 μL was transferred to the wells of a 384-well plate. For the isoforms of FGFR (−1, −2, −3 wild-type and mutant isoforms, −4) including phosphorylated and un-phosphorylated proteins, a 5 μL/well volume of enzyme diluted in assay buffer (50 mM HEPES, 10 mM MgCl2, 1 mM EGTA, 0.01% Tween-20, 5 mM DTT, pH 7.5) was added to the plate and pre-incubated with inhibitor for 5 to 15 minutes at ambient temperature. Appropriate controls (enzyme blank and enzyme with no inhibitor) were included on the plate. The reaction was initiated by the addition of a 5 μL/well volume containing both biotinylated […] […] The ATP Km values were pre-determined for each FGFR isoform in a separate series of experiments. […] The plate was allowed to equilibrate for ˜10 minutes at ambient temperature before scanning on a PheraStar plate reader (BMG Labtech) instrument.
(§4) Either GraphPad prism or XLfit was used to analyze the data. The IC50 values were derived by fitting the data to a four parameter logistic equation producing a sigmoidal dose-response curve with a variable Hill coefficient. Prism equation: Y=Bottom+(Top−Bottom)/(1+10^((Log IC50−X)*Hill slope)); […]

For data set [3], the target named is tyrosine-phosphorylated Fibroblast Growth Factor Receptor 2 alpha (FGFR2α) in KATO III cells (Homo sapiens, UniProt P21802). Description: KATOIII Whole Blood pFGFR2α ELISA Assay. The conditions noted are these: read-out: FGFR2_WB_ELISA-KATOIII IC50; KATO III cells spiked into human whole blood, 4 hours. It counts as cell-based. As for the experimental part:
To measure tyrosine-phosphorylated Fibroblast Growth Factor Receptor 2 alpha (FGFR2a) in KATO III spiked whole blood assay, KATO III cells were purchased from ATCC and maintained in Iscove's medium with 20% FBS (Gibco/Life Technologies). […] 50 uL of the cells were then spiked into a 96-deep well 2 ml polypropylene assay block (Costar) in the presence or absence of a concentration range of test compounds and 300 ul human heparinized whole blood (Biological Specialty Corp, Colmar Pa.). After 4 hours incubation in 37° C., the red cells were lysed using Qiagen EL buffer and the cell lysates were resuspended in lysis buffer (Cell Signaling) containing standard protease inhibitor cocktail (Calbiochem/EMD) and PMSF (Sigma) for 30 minutes ice. […] IC50 determination was performed by fitting the curve of inhibitor percent inhibition versus the log of the inhibitor concentration using the GraphPad Prism 5.0 software.
On the technique in general: In an ELISA, binding on a coated surface is turned into a signal by an enzyme label.

The target in the next data set is FGFR3 (Homo sapiens (Human), UniProt P22607). Description: FGFR Enzymatic Assay (FRET peptide phosphorylation), FGFR3. It counts as biochemical. As for the experimental part: as §3, §4
For a further data set, the target named is FGFR2 (Homo sapiens (Human), UniProt P21802). Description: FGFR Enzymatic Assay (FRET peptide phosphorylation), FGFR2. Type of data set: biochemical. As for the experimental part:
as §3, §4

Where [4] appears, read: Caco-2, with cyclosporine A (CSA) 5 μM, with CSA 5 μM.
The mark [5] stands for this setting: radioactive dose, single oral dose, healthy male subjects.

Each structure is given as a SMILES string.

Chain of P-gp (P08183 whole entry): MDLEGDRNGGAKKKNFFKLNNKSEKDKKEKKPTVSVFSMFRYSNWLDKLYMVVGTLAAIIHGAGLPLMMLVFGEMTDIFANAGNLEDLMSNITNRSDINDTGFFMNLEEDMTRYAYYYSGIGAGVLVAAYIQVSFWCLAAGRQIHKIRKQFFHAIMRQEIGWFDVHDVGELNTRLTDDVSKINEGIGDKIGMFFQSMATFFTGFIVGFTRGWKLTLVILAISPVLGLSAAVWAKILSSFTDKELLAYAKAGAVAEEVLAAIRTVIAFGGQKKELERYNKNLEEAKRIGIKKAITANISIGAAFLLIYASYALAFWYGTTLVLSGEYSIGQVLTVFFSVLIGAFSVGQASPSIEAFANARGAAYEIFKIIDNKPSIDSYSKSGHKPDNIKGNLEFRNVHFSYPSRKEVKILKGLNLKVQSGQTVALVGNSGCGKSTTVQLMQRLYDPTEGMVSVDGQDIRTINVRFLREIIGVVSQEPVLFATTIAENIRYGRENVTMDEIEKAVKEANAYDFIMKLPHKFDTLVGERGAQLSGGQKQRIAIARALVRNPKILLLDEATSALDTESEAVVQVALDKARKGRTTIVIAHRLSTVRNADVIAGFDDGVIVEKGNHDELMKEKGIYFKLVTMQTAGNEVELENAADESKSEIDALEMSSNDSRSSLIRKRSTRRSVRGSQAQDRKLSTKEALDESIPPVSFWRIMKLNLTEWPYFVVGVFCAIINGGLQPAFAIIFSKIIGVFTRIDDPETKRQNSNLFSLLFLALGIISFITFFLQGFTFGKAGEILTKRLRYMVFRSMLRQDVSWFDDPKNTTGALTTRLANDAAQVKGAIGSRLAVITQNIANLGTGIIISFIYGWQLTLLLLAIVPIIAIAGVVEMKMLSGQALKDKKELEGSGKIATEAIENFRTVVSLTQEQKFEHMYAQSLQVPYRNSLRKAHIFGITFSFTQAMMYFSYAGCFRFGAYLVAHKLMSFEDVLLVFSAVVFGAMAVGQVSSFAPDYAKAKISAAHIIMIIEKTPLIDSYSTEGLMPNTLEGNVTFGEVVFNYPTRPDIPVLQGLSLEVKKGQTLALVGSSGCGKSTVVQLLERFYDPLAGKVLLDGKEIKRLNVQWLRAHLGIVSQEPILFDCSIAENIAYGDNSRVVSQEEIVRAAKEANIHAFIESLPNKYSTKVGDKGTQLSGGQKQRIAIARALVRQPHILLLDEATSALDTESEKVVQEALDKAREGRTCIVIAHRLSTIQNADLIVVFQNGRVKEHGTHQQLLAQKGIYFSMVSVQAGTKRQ
Chain of FGFR3 (P22607 23-806): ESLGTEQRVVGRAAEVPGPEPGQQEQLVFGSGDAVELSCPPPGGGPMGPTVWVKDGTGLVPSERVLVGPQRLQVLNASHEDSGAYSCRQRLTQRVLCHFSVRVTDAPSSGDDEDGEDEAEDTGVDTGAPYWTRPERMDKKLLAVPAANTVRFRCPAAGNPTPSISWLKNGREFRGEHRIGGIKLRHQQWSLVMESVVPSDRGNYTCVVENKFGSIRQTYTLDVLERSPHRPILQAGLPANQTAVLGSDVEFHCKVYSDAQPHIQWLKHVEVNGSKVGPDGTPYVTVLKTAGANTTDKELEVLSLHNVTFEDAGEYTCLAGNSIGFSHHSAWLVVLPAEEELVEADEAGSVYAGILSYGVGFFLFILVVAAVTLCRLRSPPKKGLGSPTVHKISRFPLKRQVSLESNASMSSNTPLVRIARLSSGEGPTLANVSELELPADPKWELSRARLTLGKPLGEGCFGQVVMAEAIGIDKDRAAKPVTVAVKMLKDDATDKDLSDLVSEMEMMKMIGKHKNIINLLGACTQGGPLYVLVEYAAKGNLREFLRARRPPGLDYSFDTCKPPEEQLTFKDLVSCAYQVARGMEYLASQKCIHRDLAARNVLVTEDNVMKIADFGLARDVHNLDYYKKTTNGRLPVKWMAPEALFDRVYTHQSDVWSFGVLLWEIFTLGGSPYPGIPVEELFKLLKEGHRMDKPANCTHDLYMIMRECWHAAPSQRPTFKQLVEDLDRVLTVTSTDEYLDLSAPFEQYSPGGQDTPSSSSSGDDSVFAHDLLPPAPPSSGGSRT
Chain of FGFR1 (P11362 22-822): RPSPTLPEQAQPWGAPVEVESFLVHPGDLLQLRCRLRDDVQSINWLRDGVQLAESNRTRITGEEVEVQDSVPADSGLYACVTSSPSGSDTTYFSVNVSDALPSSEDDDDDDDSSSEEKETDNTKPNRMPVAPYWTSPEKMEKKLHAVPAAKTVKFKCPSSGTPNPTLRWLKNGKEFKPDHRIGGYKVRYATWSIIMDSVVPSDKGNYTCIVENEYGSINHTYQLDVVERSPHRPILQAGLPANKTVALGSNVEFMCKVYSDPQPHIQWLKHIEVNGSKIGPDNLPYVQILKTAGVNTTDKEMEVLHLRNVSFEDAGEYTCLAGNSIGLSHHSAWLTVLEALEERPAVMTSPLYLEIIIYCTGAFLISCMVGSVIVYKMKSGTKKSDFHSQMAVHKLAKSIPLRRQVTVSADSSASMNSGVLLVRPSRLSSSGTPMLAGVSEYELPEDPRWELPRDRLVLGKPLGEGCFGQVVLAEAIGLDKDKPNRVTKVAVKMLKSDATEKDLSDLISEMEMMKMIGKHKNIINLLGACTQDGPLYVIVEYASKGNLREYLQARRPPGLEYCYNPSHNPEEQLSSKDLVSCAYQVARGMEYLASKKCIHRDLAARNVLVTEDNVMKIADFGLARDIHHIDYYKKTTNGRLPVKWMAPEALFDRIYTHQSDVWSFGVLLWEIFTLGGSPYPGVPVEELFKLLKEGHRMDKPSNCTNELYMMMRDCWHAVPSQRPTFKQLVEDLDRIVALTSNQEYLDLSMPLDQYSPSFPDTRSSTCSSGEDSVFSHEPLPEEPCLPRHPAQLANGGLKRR
Chain of tyrosine-phosphorylated Fibroblast Growth Factor Receptor 2 alpha (FGFR2α) in KATO III cells (P21802 22-821 limits assumed): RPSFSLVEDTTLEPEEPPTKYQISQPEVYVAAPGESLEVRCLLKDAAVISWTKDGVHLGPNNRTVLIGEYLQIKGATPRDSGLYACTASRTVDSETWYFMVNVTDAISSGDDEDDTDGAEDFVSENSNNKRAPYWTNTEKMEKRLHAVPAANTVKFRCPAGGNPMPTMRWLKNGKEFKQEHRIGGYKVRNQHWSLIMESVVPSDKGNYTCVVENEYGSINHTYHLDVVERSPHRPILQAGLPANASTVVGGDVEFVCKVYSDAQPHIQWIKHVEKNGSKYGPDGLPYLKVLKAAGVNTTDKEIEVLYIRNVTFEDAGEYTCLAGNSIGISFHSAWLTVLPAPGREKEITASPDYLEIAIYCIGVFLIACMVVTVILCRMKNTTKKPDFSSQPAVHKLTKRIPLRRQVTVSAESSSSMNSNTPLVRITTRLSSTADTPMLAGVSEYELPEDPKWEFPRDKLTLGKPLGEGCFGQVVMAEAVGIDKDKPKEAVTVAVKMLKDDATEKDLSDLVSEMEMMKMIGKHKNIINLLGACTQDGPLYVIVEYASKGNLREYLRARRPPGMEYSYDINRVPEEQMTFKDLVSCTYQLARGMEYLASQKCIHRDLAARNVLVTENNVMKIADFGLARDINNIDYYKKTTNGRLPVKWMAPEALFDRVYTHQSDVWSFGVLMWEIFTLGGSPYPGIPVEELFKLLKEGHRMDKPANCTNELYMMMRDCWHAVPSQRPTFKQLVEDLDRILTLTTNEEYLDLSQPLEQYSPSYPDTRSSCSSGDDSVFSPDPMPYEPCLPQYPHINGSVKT
Chain of FGFR2 (P21802 22-821): as the sequence (P21802 22-821 limits assumed) above

For `CCN1C(=O)N(c2c(F)c(OC)cc(OC)c2F)Cc2cnc3[nH]c(CN4CCOCC4)cc3c21` [Compound 1, 3-(2,6-difluoro-3,5-dimethoxyphenyl)-1-ethyl-8-(morpholin-4-ylmethyl)-1,3,4,7-tetrahydro-2H-pyrrolo[3′,2′:5,6]pyrido[4,3-d]pyrimidin-2-one], the Papp A→B at 120 min, 1 μM at P-gp (setting [4]) is 12 ± 2.3 ×10⁻⁶ cm/s; at P-gp (Caco-2, no inhibitor), 7.3 ± 1.6 ×10⁻⁶ cm/s. The Papp B→A at 120 min, 1 μM was determined as 9 ± 1.8 ×10⁻⁶ cm/s on P-gp (setting [4]) and 11 ± 0.95 ×10⁻⁶ cm/s at P-gp (Caco-2, no inhibitor). Moreover, the Papp A→B at 120 min, 30 μM stood at 18 ± 0.75 ×10⁻⁶ cm/s at P-gp (setting [4]) and 21 ± 1.1 ×10⁻⁶ cm/s on P-gp (Caco-2, no inhibitor). Moreover, the apparent permeability from basolateral to apical (Papp B→A) at 120 min, 30 μM at P-gp (setting [4]) was 12 ± 1.3 ×10⁻⁶ cm/s; at P-gp (Caco-2, no inhibitor), 13 ± 1.6 ×10⁻⁶ cm/s. Further, the “% Total Radioactivity Pool of Hamilton Pools (0-24 h)” value in data set [1] (0-24 h) is 64.5%. Moreover, the “% of Administered Dose in Feces Samples” value in data set [1] (0-24 h) worked out at 0.1%; in data set [1] (24-48 h) it was 0.6%; in data set [1] (48-72 h), 0.4%; in data set [1] (72-96 h) it was 0.2%; in data set [1] (96-120 h), 0.0%; in data set [1] (120-144 h), 0.0%. The “% of Administered Dose in Feces Samples, Sum” value in data set [1] is on record as 1.4%. In addition, the “overall recovery of radioactivity in urine and feces” value in data set [1] (over the 240 hour study) was found to be 95.1%. The “time of peak total radioactivity and plasma Compound 1 concentrations” value in data set [1] (post dose, single oral dose, fasted) is “about 2.0 hours”. The “dose recovered in feces” value in data set [1] (setting [5]) was found to be 82.4%. Further, the “dose recovered in urine” value in data set [1] (setting [5]) amounted to 12.6%. For the same molecule, the “% of Administered Dose in Urine Sample” value stood at 0.5% in data set [1] (urine, 0-6 h); 0.2% in data set [1] (urine, 6-12 h); 0.2% in data set [1] (urine, 12-24 h); 0.2% in data set [1] (urine, 24-48 h). Besides, the “% of Administered Dose in Urine Sample, Sum” value in data set [1] (urine, sum 0-48 h) worked out at 1.0%. For the same molecule, the “CACO2 Pm” value in the data set with Caco-2 cells turned out to be 11 ×10E−6 cm/s. In addition, the Papp A→B at 120 min in data set [2] amounted to 11 ×10⁻⁶ cm/s.

`CCN1C(=O)N(c2c(F)c(OC)cc(OC)c2F)C(O)c2cnc3[nH]c(CN4CCOCC4)cc3c21` (stereo not drawn) [Compound 3, 3-(2,6-difluoro-3,5-dimethoxyphenyl)-1-ethyl-4-hydroxy-8-(morpholinomethyl)-1,3,4,7-tetrahydro-2H-pyrrolo[3′,2′:5,6]pyrido[4,3-d]pyrimidin-2-one]: the half-inhibitory concentration (IC50) against FGFR1 lay within 10 to 100 nM; in data set [3] it was 1000 to 3000 nM; at FGFR3, 100 to 500 nM; on FGFR2 it was 10 to 100 nM. For the same molecule, the “% Total Radioactivity Pool of Hamilton Pools (0-24 h)” value in data set [1] (0-24 h) came to 6.0%.

As for `CCN1C(=O)N(c2c(F)c(O)cc(O)c2F)Cc2cnc3[nH]c(CN4CCOCC4)cc3c21` [Compound 4, 3-(2,6-difluoro-3,5-dihydroxyphenyl)-1-ethyl-8-(morpholinomethyl)-1,3,4,7-tetrahydro-2H-pyrrolo[3′,2′:5,6]pyrido[4,3-d]pyrimidin-2-one], the “% of Administered Dose in Feces Samples” value was found to be 0.5% in data set [1] (24-48 h); 2.3% in data set [1] (48-72 h); 1.1% in data set [1] (72-96 h); 0.2% in data set [1] (96-120 h); 0.4% in data set [1] (120-144 h). In data set [1], the “% of Administered Dose in Feces Samples, Sum” value is on record as 4.5%.

As to `CCN1C(=O)N(c2c(F)c(O)cc(OC)c2F)Cc2cnc3[nH]c(C(=O)O)cc3c21` [Compound 5, 3-(2,6-difluoro-3-hydroxy-5-methoxyphenyl)-1-ethyl-2-oxo-2,3,4,7-tetrahydro-1H-pyrrolo[3′,2′: 5,6]pyrido[4,3-d]pyrimidine-8-carboxylic acid], the “% of Administered Dose in Feces Samples” value in data set [1] (24-48 h) was determined as 0.4%; in data set [1] (48-72 h) it was 0.6%; in data set [1] (72-96 h), 0.5%; in data set [1] (96-120 h), 0.0%; in data set [1] (120-144 h), 0.1%. Besides, the “% of Administered Dose in Feces Samples, Sum” value in data set [1] was 1.6%.

As to `[2H]C([2H])([2H])Oc1cc(OC([2H])([2H])[2H])c(F)c(N2Cc3cnc4[nH]c(CN5CCOCC5)cc4c3N(CC)C2=O)c1F` [Compound 6, 3-(2,6-difluoro-3,5-bis(methoxy-d3)phenyl)-1-ethyl-8-(morpholinomethyl)-1,3,4,7-tetrahydro-2H-pyrrolo[3′,2′:5,6]pyrido[4,3-d]pyrimidin-2-one], the Papp A→B at 120 min in data set [2] stood at 16 ×10⁻⁶ cm/s.
